The text below walks through data of patent publication US11638424B2, “Mosquito attractant formulations and uses thereof” (priority 2017, dated 2023).

Data set [1] relates to A. gambiae sensu lato. Nature of the data set: Mosquito fitness after blood feeding (blood meal size, fecundity, survival). It counts as in vivo. The conditions noted are these: hRBCs vs RBCs. Here is the method: Mosquitoes used in this study were from the laboratory colony of A. gambiae sensu lato (Keele line, University of Glasgow), which was produced by balanced interbreeding of four A. gambiae s.s. strains (H. Hurd, et al. Evolution, 59, 2560-2572 (2005)). Larvae were reared under standard insectary conditions (27±1° C., 70% humidity, 12 h light: 12 h dark cycle) and fed on TetraMin fish flakes (Tetra ltd., Germany). Pupae were transferred into holding cages for emergence. Emerged adults were fed ad libitum on 5% glucose solution, supplemented with 0.05% (w/v) 4-aminobenzoic acid (PABA, Sigma-Aldrich), through soaked filters on top of the 2 ml tubes and with soaked filter pads inside cages. Red blood cells (RBCs) were washed with Roswell Park Memorial Institute (RPMI) medium and stored in RPMI at 50% haematocrit at 4° C. until use. To measure the effect of HMBPP on mosquito fitness, RBCs stored in RPMI were centrifuged at 2500×g for 5 min followed by replacement of the medium with AB serum for a final haematocrit of 40%. HMBPP (stock concentration at 4 mM in Nanopure water, stored at −80° C.) was diluted to 10 μM in 1 ml RBC suspension, and the corresponding volume of Nanopure water was added to the control RBCs. All experiments were, unless otherwise stated, conducted on 5-7 days post-emergence female mosquitoes maintained in separated cages (approximately 210 individuals per cohort) and fed RBCs either with or without HMBPP for 30 min. All experiments were performed in triplicates.
GLMM statistical modelling was used to corroborate the validity of results based on the whole data set by including the effect of replications (experimental blocks), including weighting for multiple replications. In all analyses, the effect of the main experimental effects (e.g. treatment) was investigated while controlling for variation in experimental replication (random variable). For all results, the significance of all explanatory effects were evaluated by using likelihood ratio test (LRT). Analyses were performed using R statistical software. […]

For data set [2], the system named is Plasmodium falciparum (NF54 strain). Nature of the data set: Mosquito infectious feed (P. falciparum oocyst and sporozoite infection in mosquitoes). It counts as in vivo. The method, then:
A strain of the human malaria parasite P. falciparum, denoted NF54 (T. Ponnudurai, et al., Trop Geogr Med, 33, 50-54 (1981); kindly donated by Klays Berzins, Stockholm University), known to produce gametocytes infectious to mosquitoes (D. Walliker, paper presented at the Symposia on Molecular and Cellular Biology New Series 42, UCLA (1987)), was used for all experimental infections. Parasites were cultured in vitro according to standard protocols (W. Trager and J. B. Jensen, Science, 193, 673-675 (1976)) at 5% haematocrit in complete RPMI-1640 medium with 10% human serum under a gas environment of 1% O2, 3% CO2 and 96% N2 (Labline, Goteborg, Sweden). The culture medium was replaced daily and parasitaemia assessed using Giemsa staining every two days (ibid.). When the parasitaemia reached ˜6% (approximately 2 days after initiating the culture), cultures were diluted with a freshly made 5% haematocrit mixture of RBCs/complete medium. Asexual, synchronised trophozoites were fed to mosquitoes at 5% parasitaemia.
Plasmodium falciparum gametocyte cultures (NF54 strain) were set up at 0.5-0.7% parasitaemia, 6% haematocrit in complete RPMI medium, according to standard procedures (R. Carter, et al. Methods Mol Biol, 21, 67-88 (1993)). For each infectious feeding, a mixture of gametocytes from 14- and 17-day gametocyte cultures were used (ibid.). On the day of experimental infection, uninfected RBCs were supplemented with P. falciparum gametocytes to a final gametocytaemia of approximately 3%, which is known to generate good infection prevalence (>50% in A. gambiae s.s. mosquitoes; ibid.). To measure the effect of HMBPP on parasite infectiousness, two groups of approximately 210 mosquitoes were fed on mature gametocyte-infected red blood cells (giRBCs) with or without HMBPP using a membrane feeder, as previously described (ibid.). Gametocyte density was kept equal in control and treatments. To give the final gametocytaemia of 3% in each tubes, on the day of feed, the final mature gametocytaemia was calculated in cultures and then the volume of gametocyte inoculum was estimated per 1 ml of blood. The gametocyte inoculum was prepared using an equal volume (˜400 μl) of the gametocyte mixture was added to 1 ml of each of the blood treatments (with/without HMBPP). Adding a fixed volume of well-mixed gametocyte culture to a fixed volume of each blood treatment, it was ensured that parasite density (no. gametocytes per ml) was constant in both groups.

On to `C/C(=C\COP(=O)(O)OP(=O)(O)O)CO` [HMBPP, (E)-4-hydroxy-3-methyl-but-2-enyl pyrophosphate], for which the mosquito fecundity result in data set [1] (FIG. 3A) is given as “Neither mosquito fecundity, nor survival was affected”. The mosquito survival result in data set [1] (FIG. 3B) is “Neither mosquito fecundity, nor survival was affected”. Further, the “size of mosquito blood meals” value in data set [1] (FIG. 3C) is reported as “significantly increased”. Moreover, the “oocyst prevalence (proportion of oocyst-carrying mosquitoes)” value in data set [2] (giRBCs with additional HMBPP, gametocyte density 3%) is about 100%. For the same compound, the “sporozoite intensity (number of sporozoites per salivary gland)” value in data set [2] (giRBCs with vs without HMBPP) was “significantly higher”. In data set [2] (giRBCs with vs without HMBPP, 10 dpi, FIG. 3D), the “oocyst intensity (number of oocyst per midgut)” value is reported as “higher”. For the same compound, in data set [2] (giRBCs with vs without HMBPP, 14 dpi, FIG. 3E), the “sporozoite prevalence (proportion of sporozoite-carrying mosquitoes)” value was “significantly higher”. For the same compound, the “oocyst prevalence, difference between treatments” value in data set [2] (giRBCs with vs without additional HMBPP) is on record as “not significantly different”.
